Literature values, collected in patent US7335651B2, “Compositions incorporating(-)-hydroxycitric acid and related methods for promoting fat oxidation” (Interhealth Nutraceuticals Incorporated, priority 2001, dated 2008).
Read-outs that look alike come from different tables or passages of the source.

Legend:
young obese women = details: eight weeks
growing rats = details: thirty days
[1] = acute toxicity tests
liver lipogenesis = details: rats; acute oral dose 2.63 mmoles/kg (roughly 594 mg/kg) before a standardized synthetic meal; up to 8 hours after the meal
ATP-citrate lyase = target: T1, ATP-citrate lyase (Homo sapiens, UniProt P53396)
T1 sequence (P53396 1-1101): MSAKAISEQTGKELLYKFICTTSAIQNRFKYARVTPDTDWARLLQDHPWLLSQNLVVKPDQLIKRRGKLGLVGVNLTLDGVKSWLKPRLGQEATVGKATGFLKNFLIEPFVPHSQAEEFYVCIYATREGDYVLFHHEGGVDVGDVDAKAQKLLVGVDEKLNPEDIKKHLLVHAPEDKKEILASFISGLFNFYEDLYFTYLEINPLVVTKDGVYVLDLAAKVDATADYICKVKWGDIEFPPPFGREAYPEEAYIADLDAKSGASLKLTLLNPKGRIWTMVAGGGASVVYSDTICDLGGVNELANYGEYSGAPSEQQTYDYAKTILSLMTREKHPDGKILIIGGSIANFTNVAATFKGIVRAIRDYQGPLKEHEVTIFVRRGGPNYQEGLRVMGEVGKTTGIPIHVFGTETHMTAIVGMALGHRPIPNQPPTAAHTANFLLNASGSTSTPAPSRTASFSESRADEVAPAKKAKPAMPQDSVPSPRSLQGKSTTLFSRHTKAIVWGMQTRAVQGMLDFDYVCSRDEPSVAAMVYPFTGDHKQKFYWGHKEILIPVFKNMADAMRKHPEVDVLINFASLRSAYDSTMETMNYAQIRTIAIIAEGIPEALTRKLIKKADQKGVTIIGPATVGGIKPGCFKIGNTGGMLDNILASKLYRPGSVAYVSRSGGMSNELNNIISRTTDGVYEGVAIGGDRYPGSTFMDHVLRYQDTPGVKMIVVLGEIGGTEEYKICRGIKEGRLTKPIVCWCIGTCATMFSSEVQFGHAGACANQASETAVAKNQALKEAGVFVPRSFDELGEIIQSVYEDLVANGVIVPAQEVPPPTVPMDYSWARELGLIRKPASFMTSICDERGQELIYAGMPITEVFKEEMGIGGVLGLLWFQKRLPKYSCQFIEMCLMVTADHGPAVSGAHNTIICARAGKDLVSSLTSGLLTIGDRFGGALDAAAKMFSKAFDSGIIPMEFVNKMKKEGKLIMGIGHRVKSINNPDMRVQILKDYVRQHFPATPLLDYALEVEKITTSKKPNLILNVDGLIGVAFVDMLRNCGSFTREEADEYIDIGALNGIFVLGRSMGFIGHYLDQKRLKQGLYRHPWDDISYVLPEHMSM

Row | Compound | DNA damage and mutagenicity (DNA) | Body weight change with exercise (young obese women; in combination with exercise, O-NBC at 400 micrograms chromium per day) | Body weight change without exercise (young obese women; no exercise) | Decrease in body weight gain (growing rats; 0.33 mmoles/kg twice daily) | Decrease in body weight gain (growing rats; 2.63 mmoles/kg once daily) | Decrease in body weight gain (growing rats; single daily administration) | Acute toxicity compared with citric acid [1] | Decrease in liver lipogenesis (liver lipogenesis) | Mode of inhibition of ATP-citrate lyase (ATP-citrate lyase)
1 | chromium picolinate | damage DNA and be mutagenic | no change in weight | significant weight gain |  |  |  |  |  | 
2 | O=C(O)CC(O)(C(=O)O)C(O)C(=O)O (single isomer, unassigned; (-)) [HCA, (−)-hydroxycitric acid] |  |  |  | significant | significant | no significant reductions | even safer than citric acid | roughly 70% | competitive inhibitor
